This is an account of results in ChEMBL document CHEMBL3045936, “Synthesis of new piperidyl indanone derivatives as anticonvulsant agents” (Med Chem Res, 2012).

Activity calls are given as the source filed them. The calls are words filed in the database; no cut-off is given here.

The first data set relates to Mus musculus. Nature of the data set: Neurotoxicity in Mus musculus Swiss albino (mouse) assessed as minimal motor impairment at 300 mg/kg, ip after 4 hr by rotorod test. It is filed as toxicity, organism-based. As to conditions: in vivo. Further details: dose 300 mg/kg, route intraperitoneal. (In general: The rotarod test checks motor coordination on a turning rod.)
Turning to `COc1cc2c(cc1OC)C(=O)C(CC1CCN(C(=S)Nc3ccccc3)CC1)C2` (stereo not given), the Activity result is listed as “Non-toxic”.
With `NC(=O)N1c2ccccc2C=Cc2ccccc21` [CARBAMAZEPINE], the Activity result was “Non-toxic”.

A further data set relates to Mus musculus. Description: Neurotoxicity in Mus musculus Swiss albino (mouse) assessed as minimal motor impairment at 300 mg/kg, ip after 0.5 hr by rotorod test. As to conditions: in vivo. Further details: dose 300 mg/kg, route intraperitoneal. It is filed as toxicity, organism-based.
Regarding `COc1cc2c(cc1OC)C(=O)C(CC1CCN(C(=S)Nc3ccccc3[N+](=O)[O-])CC1)C2` (stereo not given), the Activity entry was “Non-toxic”.

Another data set concerns Mus musculus. Description: Anticonvulsant activity in Mus musculus Swiss albino (mouse) assessed as protection against subcutaneous pentylenetetrazole-induced seizures at 300 mg/kg, ip after 4 hr. It is filed as functional, organism-based. Further details: dose 300 mg/kg.
Settings: not given
For the compound `O=C1NC(=O)C(c2ccccc2)(c2ccccc2)N1` [PHENYTOIN], the result was inactive.
`COc1cc2c(cc1OC)C(=O)C(CC1CCN(C(=S)Nc3ccccc3[N+](=O)[O-])CC1)C2` (stereo not given): the result was inactive.

Another data set has as its system Mus musculus. Nature of the data set: Anticonvulsant activity in Mus musculus Swiss albino (mouse) assessed as protection against subcutaneous pentylenetetrazole-induced seizures at 300 mg/kg, ip after 0.5 hr. It is filed as functional, organism-based. Further details: dose 300 mg/kg.
Settings: not given
For `O=C1NC(=O)C(c2ccccc2)(c2ccccc2)N1` [PHENYTOIN], the outcome was inactive.
For the compound `COc1cc2c(cc1OC)C(=O)C(CC1CCN(C(=S)Nc3ccccc3[N+](=O)[O-])CC1)C2` (stereo not given), the outcome was inactive.

The next data set concerns Mus musculus. Description: Anticonvulsant activity in Mus musculus Swiss albino (mouse) assessed as protection against maximal electroshock-induced seizures at 300 mg/kg, ip after 4 hr. Further details: dose 300 mg/kg. It is filed as functional, organism-based.
Settings: not given
A general note: The maximal electroshock test induces tonic seizures with an electrical stimulus.
Regarding `COc1cc2c(cc1OC)C(=O)C(CC1CCN(C(=S)Nc3cccc(Cl)c3)CC1)C2` (stereo not given), the outcome was inactive.
As for `COc1cc2c(cc1OC)C(=O)C(CC1CCN(C(=S)Nc3cccc([N+](=O)[O-])c3)CC1)C2` (stereo not given), the result was inactive.
Regarding `COc1cc2c(cc1OC)C(=O)C(CC1CCN(C(=S)Nc3cccc(C)c3)CC1)C2` (stereo not given), the outcome was inactive.

A further data set has as its system Mus musculus. Nature of the data set: Neurotoxicity in ip dosed Mus musculus Swiss albino (mouse) assessed as minimal motor impairment after 4 hr by rotorod test. It is filed as toxicity, organism-based. As to conditions: in vivo.
Take `O=C1NC(=O)C(c2ccccc2)(c2ccccc2)N1` [PHENYTOIN]: the MTC was 100 mg/kg.
`COc1cc2c(cc1OC)C(=O)C(CC1CCN(C(=S)Nc3ccccc3[N+](=O)[O-])CC1)C2` (stereo not given): the MTC turned out to be 300 mg/kg.

The next data set deals with Mus musculus. Nature of the data set: Neurotoxicity in ip dosed Mus musculus Swiss albino (mouse) assessed as minimal motor impairment after 0.5 hr by rotorod test. As to conditions: in vivo. It is filed as toxicity, organism-based.
Take `O=C1NC(=O)C(c2ccccc2)(c2ccccc2)N1` [PHENYTOIN]: the MTC was found to be 100 mg/kg.
Still for that read-out and setting: then `COc1cc2c(cc1OC)C(=O)C(CC1CCN(C(=S)Nc3ccccc3)CC1)C2` (stereo not given), with 300 mg/kg; and `NC(=O)N1c2ccccc2C=Cc2ccccc21` [CARBAMAZEPINE], with 300 mg/kg.

The test system of the next data set is Mus musculus. Description: Anticonvulsant activity in ip dosed Mus musculus Swiss albino (mouse) assessed as protection against subcutaneous pentylenetetrazole-induced seizures after 4 hr. As to conditions: read-out: MED. It is filed as functional.
In the case of `COc1cc2c(cc1OC)C(=O)C(CC1CCN(C(=S)Nc3ccccc3)CC1)C2` (stereo not given), the minimal effective dose was 300 mg/kg.
For the compound `NC(=O)N1c2ccccc2C=Cc2ccccc21` [CARBAMAZEPINE], the minimal effective dose came out at 100 mg/kg.

The next data set deals with Mus musculus. Nature of the data set: Anticonvulsant activity in ip dosed Mus musculus Swiss albino (mouse) assessed as protection against subcutaneous pentylenetetrazole-induced seizures after 0.5 hr. It is filed as functional. To be noted: read-out: MED.
Turning to `COc1cc2c(cc1OC)C(=O)C(CC1CCN(C(=S)Nc3ccccc3)CC1)C2` (stereo not given), the minimal effective dose is 100 mg/kg.
In the case of `NC(=O)N1c2ccccc2C=Cc2ccccc21` [CARBAMAZEPINE], the minimal effective dose stood at 300 mg/kg.

Another data set has as its system Mus musculus. Nature of the data set: Anticonvulsant activity in ip dosed Mus musculus Swiss albino (mouse) assessed as protection against maximal electroshock-induced seizures after 0.5 hr. It is filed as functional. To be noted: read-out: MED.
As to `COc1cc2c(cc1OC)C(=O)C(CC1CCN(C(=S)Nc3cccc(Cl)c3)CC1)C2` (stereo not given), the minimal effective dose came to 300 mg/kg.
For `COc1cc2c(cc1OC)C(=O)C(CC1CCN(C(=S)Nc3cccc([N+](=O)[O-])c3)CC1)C2` (stereo not given), the minimal effective dose amounted to 300 mg/kg.
As to `O=C1NC(=O)C(c2ccccc2)(c2ccccc2)N1` [PHENYTOIN], the minimal effective dose is 30 mg/kg.
`COc1cc2c(cc1OC)C(=O)C(CC1CCN(C(=S)Nc3ccccc3)CC1)C2` (stereo not given): the minimal effective dose turned out to be 100 mg/kg.
As for `COc1cc2c(cc1OC)C(=O)C(CC1CCN(C(=S)Nc3cccc(C)c3)CC1)C2` (stereo not given), the minimal effective dose stood at 300 mg/kg.
With `COc1cc2c(cc1OC)C(=O)C(CC1CCN(C(=S)Nc3ccccc3[N+](=O)[O-])CC1)C2` (stereo not given), the minimal effective dose amounted to 100 mg/kg.
As for `NC(=O)N1c2ccccc2C=Cc2ccccc21` [CARBAMAZEPINE], the minimal effective dose turned out to be 30 mg/kg.

Another data set relates to Mus musculus. Description: Anticonvulsant activity in ip dosed Mus musculus Swiss albino (mouse) assessed as protection against maximal electroshock-induced seizures after 4 hr. As to conditions: read-out: MED. It is filed as functional.
Turning to `O=C1NC(=O)C(c2ccccc2)(c2ccccc2)N1` [PHENYTOIN], the minimal effective dose amounted to 30 mg/kg.
Turning to `COc1cc2c(cc1OC)C(=O)C(CC1CCN(C(=S)Nc3ccccc3)CC1)C2` (stereo not given), the minimal effective dose was 300 mg/kg.
For the compound `COc1cc2c(cc1OC)C(=O)C(CC1CCN(C(=S)Nc3ccccc3[N+](=O)[O-])CC1)C2` (stereo not given), the minimal effective dose was 300 mg/kg.
As to `NC(=O)N1c2ccccc2C=Cc2ccccc21` [CARBAMAZEPINE], the minimal effective dose is 100 mg/kg.
